Data from patent US20250206778A1, “PEPTIDE HAVING ANTIDIABETIC ACTIVITY, PEPTIDE COMPLEX, AND USE THEREOF” (CAREGEN CO., LTD., priority 2022, published 2025).

Tests used:
Format in all cases: cell-based
[1] = tested on: adipose triglyceride lipase (ATGL); test: Western blot of lipolytic enzyme proteins in 3T3-L1 adipocytes; conditions: 2, 20 μg/ml, 1 h, FIGS. 13a, 13b
Protocol: (§1) Whether the peptide of SEQ ID NO: 2 prepared in Preparation Example 1 promotes the expressions of lipolytic enzyme proteins in adipocytes was tested through protein expression analysis (western blot analysis).
(§2) When 3T3-L1 preadipocytes reached 80% confluence, they were seeded in a 6-well plate at 5×10^5 cells/well and used for the experiment. Two days after reaching confluence, the culture medium was replaced with a differentiation induction medium [DMEM medium containing 10% FBS, 1 μg/ml insulin, 0.5 mM isobutyl methyl xanthine (IBMX) (Sigma, USA), and 1 μM dexamethasone (Sigma, USA)], and differentiation into adipocytes was induced. Two days after induction, preadipocytes were cultured for two days in a medium containing 10% FBS and 10 μg/mL insulin, and then the medium was replaced with a medium containing 10% FBS every two days until preadipocytes differentiated into adipocytes. When differentiation was completed, the medium was replaced with a serum-free medium, and cells were cultured for four hours to induce starvation. Cells were divided into an untreated group (negative control), the peptide of Preparation Example 1 (2, 20 μg/ml)-treatment group, and the TNFα (20 nM)-treatment group (positive control), and then treated with the substances at predetermined concentrations and cultured for one hour. Then, the cells in each treatment group were lysed by adding a lysis buffer. After lysis, proteins obtained by centrifugation at 4° C. and 12,000 rpm for 30 minutes were quantified using a BCA kit. Proteins were subjected to sodium dodecyl sulfate-polyacrylamide gel electrophoresis (SDS-PAGE) and electrotransferred to a membrane. The protein-attached membrane was blocked with 5% skim milk treatment, and then the primary antibody was reacted overnight at 4° C. The membrane was washed with PBS-T, the secondary antibody was reacted at room temperature for one hour, the membrane was washed again with PBS-T, and then visualization was carried out by using Gel Doc (Bio-Rad, Hercules, CA, USA) with a western detection reagent (Elpis Biotech, Daejeon, Korea). […]

perilipin (PLIN) = test: as above; conditions: 2, 20 μg/ml, 1 h, FIGS. 13a, 13b
Protocol: as §1, §2

[2] = tested on: phosphorylated hormone-sensitive lipase (pHSL); test: as above; conditions: 2, 20 μg/ml, 1 h, FIGS. 13a, 13b
Protocol: as §1, §2

3T3-L1 adipocytes = test: Glycerol release assay (lipolysis) in 3T3-L1 adipocytes; conditions: 2, 20 μg/ml, 48 h, FIG. 14
Protocol: The release amount of glycerol, a lipolysis product, was analyzed to determine whether the peptide of SEQ ID NO: 2 prepared in Preparation Example 1 promotes lipolysis in adipocytes.
When 3T3-L1 preadipocytes reached 80% confluence, they were seeded in a 6-well plate at 5×10^5 cells/well and used for the experiment. Two days after reaching confluence, the culture medium was replaced with a differentiation induction medium [DMEM medium containing 10% FBS, 1 μg/ml insulin, 0.5 mM isobutyl methyl xanthine (IBMX) (Sigma, USA), and 1 μM dexamethasone (Sigma, USA)], and differentiation into adipocytes was induced. Two days after induction, preadipocytes were cultured for two days in a medium containing 10% FBS and 10 μg/mL insulin, and then the medium was replaced with a medium containing 10% FBS every two days until preadipocytes differentiated into adipocytes. When differentiation was completed, the medium was replaced with a serum-free medium, and cells were cultured for four hours to induce starvation. Cells were divided into an untreated group (negative control), the peptide of SEQ ID NO: 2 of Preparation Example 1 (2, 20 μg/ml)-treatment group, and the TNF-α (20 nM)-treatment group (positive control), and then treated with the substances at predetermined concentrations and cultured for 48 hours. Then, the supernatants were obtained. […]

phospho-AKT = test: Western blot of insulin signals in 3T3-L1 adipocytes (peptide of SEQ ID NO: 2); conditions: 2, 20 μg/ml, FIGS. 15a, 15b
Protocol: (§3) When 3T3-L1 preadipocytes reached 80% confluence, they were seeded in a 6-well plate at 5×10^5 cells/well and used for the experiment. Two days after reaching confluence, the culture medium was replaced with a differentiation induction medium [DMEM medium containing 10% FBS, 1 μg/ml insulin, 0.5 mM isobutyl methyl xanthine (IBMX) (Sigma, USA), and 1 μM dexamethasone (Sigma, USA)], and differentiation into adipocytes was induced. Two days after induction, preadipocytes were cultured for two days in a medium containing 10% FBS and 10 μg/mL insulin, and then the medium was replaced with a medium containing 10% FBS every two days until preadipocytes differentiated into adipocytes. When differentiation was completed, the medium was replaced with a serum-free medium, and cells were cultured for four hours to induce starvation. To the cells, each of rhTNF-α (2 nM), insulin (1 μg/ml), and the peptide of SEQ ID NO: 2 of Preparation Example 1 (2, 20 μg/ml) was added and the cells were cultured for one hour. The cells were cultured for 30 minutes, the cells of each treatment group were lysed by adding a lysis buffer, and then centrifuged at 4° C. and 12,000 rpm for 30 minutes. The obtained proteins were quantified using a BCA kit. Proteins were subjected to sodium dodecyl sulfate-polyacrylamide gel electrophoresis (SDS-PAGE) and electrotransferred to a membrane. The protein-attached membrane was blocked with 5% skim milk treatment, and then the primary antibody was reacted overnight at 4° C. The membrane was washed with PBS-T, the secondary antibody was reacted at room temperature for one hour, the membrane was washed again with PBS-T, and then visualization was carried out by using Gel Doc (Bio-Rad, Hercules, CA, USA) with a western detection reagent (Elpis Biotech, Daejeon, Korea). The antibodies used in the experiment are as follows: anti-phospho-IRS (Ser302) antibody (Cell signaling technology (CST), USA), anti-phospho-IRS (Tyr632) antibody (Cell signaling technology (CST), USA), anti-phospho-AKT antibody (Cell signaling technology (CST), USA), anti-phospho-AMPK antibody (Cell signaling technology (CST), USA), and anti-α-tubulin antibody (Santa Cruz Biotechnology, USA). […] In addition, it was confirmed that when the peptide of the present invention was treated, the phosphorylation of AMPK, an insulin sensitivity-increasing signaling protein, increased. Meanwhile, it was confirmed that phosphorylation of Ser302 of an insulin receptor substrate (IRS) decreased under an insulin resistance-inducing environment by the treatment of the present peptide, and thus insulin resistance was inhibited.

phospho-AMPK = test: as above; conditions: 2, 20 μg/ml, FIGS. 15a, 15b
Protocol: as §3

phospho-IRS (Ser302) = test: as above; conditions: rhTNF-α 2 nM, 2, 20 μg/ml, FIGS. 15a, 15b
Protocol: as §3

phospho-IRS (Tyr632) = test: as above; conditions: 2, 20 μg/ml, FIGS. 15a, 15b
Protocol: as §3

In the case of KGSATGWMA [peptide of SEQ ID NO: 2], the “expression of adipose triglyceride lipase (ATGL)” value [1] was “increased”, the “expression of perilipin (PLIN)” value (perilipin (PLIN)) was “increased” and the “expression of phosphorylated hormone-sensitive lipase (pHSL)” value [2] was “increased”. For the same sequence, the “release amount of glycerol, a lipolysis product” value (3T3-L1 adipocytes) was “increased in a treated peptide concentration-dependent manner”, the “activation of phosphorylation-AKT” value (phospho-AKT) was “promoted” and the “phosphorylation of AMPK” value (phospho-AMPK) was “increased”. For the same sequence, the “phosphorylation of Ser302 of insulin receptor substrate (IRS) under an insulin resistance-inducing environment” value (phospho-IRS (Ser302)) was “decreased” and the “phosphorylation of Tyr632 of insulin receptor substrate (IRS)” value (phospho-IRS (Tyr632)) was “promoted”.
